Columns and labels:
Format in all cases: cell-based
Ba/F3 BCR-ABL1 T315I = target: T1, Ba/F3 BCR-ABL1 T315I (Homo sapiens, UniProt P00519+P11274, T315I); test: Cell growth inhibitory activity assay (CellTiter-Glo), Ba/F3 BCR-ABL1 T315I cells; settings: 72 h, CTG cell viability
T1 construct: BCR (N-terminal fusion partner of the oncoprotein); expressed in transfected cells; host or cells: Ba/F3 (lentiviral transduction, monoclonal line)
Method in brief: (§1)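 Ba/F3 lines stably transduced by lentivirus with WT or mutant BCR-ABL1, alongside untransduced parental Ba/F3, were seeded and incubated overnight at 37 °C, 5% CO2, then exposed to serially diluted compound for 72 h. Viability was read as ATP by CellTiter-Glo luminescence against a day-of-dosing T0 plate; IC50 from four-parameter nonlinear fit.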

K562 cells = test: Cell growth inhibitory activity assay (CellTiter-Glo), K562 cells; settings: Homo sapiens, 72 h, CTG cell viability
Method in brief: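 Growth inhibition of human K562 cells, sourced from Nanjing Kebai (CBP60529), was assessed with Promega's CellTiter-Glo kit, which measures viability through ATP quantification. Log-phase cells went into the inner wells of 96-well plates, with PBS in edge wells, incubated overnight at 37 °C and 5% CO2, then exposed to serially diluted compound for 72 h.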

Ba/F3 parental cells = test: Cell growth inhibitory activity assay (CellTiter-Glo), Ba/F3 parental cells; settings: Mus musculus, BaF3, 72 h, CTG cell viability, read-out: IC50 Ba/F3 BCR-ABL1 Parental
Method in brief: as §1

Ba/F3 BCR-ABL1 WT = target: T2, Ba/F3 BCR-ABL1 WT (Homo sapiens, UniProt P00519+P11274); test: Cell growth inhibitory activity assay (CellTiter-Glo), Ba/F3 BCR-ABL1 WT cells; settings: 72 h, CTG cell viability
T2 construct: BCR (N-terminal fusion partner of the oncoprotein); expressed in transfected cells; host or cells: Ba/F3 (lentiviral transduction, monoclonal line)
Method in brief: as §1

IC50 (K562 cells)	Structure (SMILES)	IC50 (Ba/F3 BCR-ABL1 T315I)	IC50 (Ba/F3 parental cells)	IC50 (Ba/F3 BCR-ABL1 WT)
≤ 5 nM	Cn1ccc2cnc(-n3cc4c(n3)-c3cc(-c5cc(C(=O)Nc6ccc(OC(F)(F)Cl)cc6)cnc5N5CC[C@@H](F)C5)cnc3C4)nc21 [T-38, (R)-N-(4-(chlorodifluoromethoxy)phenyl)-6-(3-fluoropyrrolidin-1-yl)-5-(2-(7-methyl-7H-pyrrolo[2,3-d]pyrimidin-2-yl)-2,4-dihydropyrazolo[3',4':3,4]cyclopenta[1,2-b]pyridin-7-yl)nicotinamide]	≤ 5 nM	> 1000 nM	≤ 5 nM
≤ 5 nM	C[C@@H]1COCc2nc3cc(C(=O)Nc4ccc(OC(F)(F)Cl)cc4)cc(-c4cnc5c(c4)C(=O)CC5)c3n21 [T-58, (R)-N-(4-(chlorodifluoromethoxy)phenyl)-4-methyl-6-(5-oxo-6,7-dihydro-5H-cyclopenta[b]pyridin-3-yl)-3,4-dihydro-1H-benzo[4,5]imidazo[2,1-c][1,4]oxazine-8-carboxamide]	5 to 50 nM	> 1000 nM	≤ 5 nM
≤ 5 nM	C[C@@H]1COCc2nc3cc(C(=O)Nc4ccc(OC(F)(F)Cl)cc4)cc(-c4cnc5c(c4)-c4nn(-c6ncc7c(ccn7C)n6)cc4C5)c3n21 [T-84, (R)-N-(4-(chlorodifluoromethoxy)phenyl)-4-methyl-6-(2-(5-methyl-5H-pyrrolo[3,2-d]pyrimidin-2-yl)-2,4-dihydropyrazolo[3',4':3,4]cyclopenta[1,2-b]pyridin-7-yl)-3,4-dihydro-1H-benzo[4,5]imidazo[2,1-c][1,4]oxazine-8-carboxamide]	≤ 5 nM	> 1000 nM	≤ 5 nM
≤ 5 nM	C[C@@H]1COCc2nc3cc(C(=O)Nc4ccc(OC(F)(F)Cl)cc4)cc(-c4cnc5c(c4)-c4nn(-c6nccc(-c7ccn(C)n7)n6)cc4C5)c3n21 [T-90, (R)-N-(4-(chlorodifluoromethoxy)phenyl)-4-methyl-6-(2-(4-(1-methyl-1H-oyrazol-3-yl)pyrimidin-2-yl)-2,4-dihydropyrazolo[3',4':3,4]cyclopenta[1,2-b]pyridin-7-yl)-3,4-dihydro-1H-benzo[4,5]imidazo[2,1-c][1,4]oxazine-8-carboxamide]	≤ 5 nM	> 1000 nM	≤ 5 nM
≤ 5 nM	C[C@@H]1COCc2nc3cc(C(=O)Nc4ccc(OC(F)(F)Cl)cc4)cc(-c4cnc5c(c4)-c4nn(-c6nccc(-c7ccc(C#N)nc7)n6)cc4C5)c3n21 [T-99, (R)-N-(4-(chlorodifluoromethoxy)phenyl)-6-(2-(4-(6-cyanopyridin-3-yl)pyrimidin-2-yl)-2,4-dihydropyrazolo[3',4':3,4]cyclopenta[1,2-b]pyridin-7-yl)-4-methyl-3,4-dihydro-1H-benzo[4,5]imidazo[2,1-c][1,4]oxazine-8-carboxamide]	≤ 5 nM	> 1000 nM	≤ 5 nM
≤ 5 nM	O=C(Nc1ccc(OC(F)(F)Cl)cc1)c1cc2c(c(-c3cnc4c(c3)-c3n[nH]cc3C4)c1)C1(CCCCC1)C(=O)N2 [T-125, N-(4-(chlorodifluoromethoxy)phenyl)-4'-(2,4-dihydropyrazolo[3',4':3,4]cyclopenta[1,2-b]pyridin-7-yl)-2'-oxospiro[cyclohexane-1,3'-indoline]-6'-carboxamide]	5 to 50 nM	> 1000 nM	≤ 5 nM
≤ 5 nM	N#Cc1ccc(-c2ccnc(-n3cc4c(n3)-c3cc(-c5cc(C(=O)Nc6ccc(OC(F)(F)Cl)cc6)cnc5N5CC[C@@H](F)C5)cnc3C4)n2)cn1 [T-19, (R)-N-(4-(chlorodifluoromethoxy)phenyl)-5-(2-(4-(6-cyanopyridin-3-yl)pyrimidin-2-yl)-2,4-dihydropyrazolo[3',4':3,4]cyclopenta[1,2-b]pyridin-7-yl)-6-(3-fluoropyrrolidin-1-yl)nicotinamide]	≤ 5 nM	> 1000 nM	≤ 5 nM
≤ 5 nM	CC(C)n1cc2c(n1)-c1cc(-c3cc(C(=O)Nc4ccc(OC(F)(F)Cl)cc4)cc4nc5n(c34)[C@H](C)COC5)ccc1C2 [T-110, (R)-N-(4-(chlorodifluoromethoxy)phenyl)-6-(2-isopropyl-2,4-dihydroindeno[1,2-c]pyrazol-7-yl)-4-methyl-3,4-dihydro-1H-benzo[4,5]imidazo[2,1-c][1,4]oxazine-8-carboxamide]	5 to 50 nM	> 1000 nM	≤ 5 nM

The remaining lines, values behind:

Structure (SMILES)	IC50 (K562 cells)	IC50 (Ba/F3 BCR-ABL1 T315I)	IC50 (Ba/F3 parental cells)	IC50 (Ba/F3 BCR-ABL1 WT)
Cn1ccc(-c2ccnc(-n3cc4c(n3)-c3cc(-c5cc(C(=O)Nc6ccc(OC(F)(F)Cl)cc6)cnc5N5CC[C@@H](F)C5)cnc3C4)n2)n1 [T-26, (R)-N-(4-(chlorodifluoromethoxy)phenyl)-6-(3-fluoropyrrolidin-1-yl)-5-(2-(4-(1-methyl-1H-pyrazol-3-yl)pyrimidin-2-yl)-2,4-dihydropyrazolo[3',4':3,4]cyclopenta[1,2-b]pyridin-7-yl)nicotinamide]	≤ 5 nM	≤ 5 nM	> 1000 nM	≤ 5 nM
Cc1ccc(-n2ncc3c2-c2cc(-c4cc(C(=O)Nc5ccc(OC(F)(F)Cl)cc5)cc5nc6n(c45)[C@H](C)COC6)cnc2C3)nn1 [T-104-B, (R)-N-(4-(chlorodifluoromethoxy)phenyl)-4-methyl-6-(1-(6-methylpyridazin-3-yl)-1,4-dihydropyrazolo[3',4':3,4]cyclopenta[1,2-b]pyridin-7-yl)-3,4-dihydro-1H-benzo[4,5]imidazo[2,1-c][1,4]oxazine-8-carboxamide]	≤ 5 nM	5 to 50 nM	> 1000 nM	≤ 5 nM
C[C@@H]1CCSc2nc3cc(C(=O)Nc4ccc(OC(F)(F)Cl)cc4)cc(-c4cnccn4)c3n21 [T-116, (R)-N-(4-(chlorodifluoromethoxy)phenyl)-4-methyl-6-(pyrazin-2-yl)-3,4-dihydro-2H-benzo[4,5]imidazo[2,1-c][1,3]thiazine-8-carboxamide]	≤ 5 nM	5 to 50 nM	> 1000 nM	≤ 5 nM
O=C(Nc1ccc(OC(F)(F)Cl)cc1)c1cnc(N2CC[C@H](F)C2)c(-c2cnc3c(c2)-c2nn(-c4ncc(F)cn4)cc2C3)c1 [T-13, (S)-N-(4-(chlorodifluoromethoxy)phenyl)-5-(2-(5-fluoropyrimidin-2-yl)-2,4-dihydropyrazolo[3',4':3,4]cyclopenta[1,2-b]pyridin-7-yl)-6-(3-fluoropyrrolidin-1-yl)nicotinamide]	≤ 5 nM	≤ 5 nM	> 1000 nM	≤ 5 nM
COc1ccc(-c2ccnc(-n3cc4c(n3)-c3cc(-c5cc(C(=O)Nc6ccc(OC(F)(F)Cl)cc6)cc6nc7n(c56)[C@H](C)COC7)cnc3C4)n2)cc1F [T-91-B, (R)-N-(4-(chlorodifluoromethoxy)phenyl)-6-(2-(4-(3-fluoro-4-methoxyphenyl)pyrimidin-2-yl)-2,4-dihydropyrazolo[3',4':3,4]cyclopenta[1,2-b]pyridin-7-yl)-4-methyl-3,4-dihydro-1H-benzo[4,5]imidazo[2,1-c][1,4]oxazine-8-carboxamide]	≤ 5 nM	≤ 5 nM	> 1000 nM	≤ 5 nM
O=C(Nc1ccc(OC(F)(F)Cl)cc1)c1cnc(N2CC[C@@H](F)C2)c(-c2cnc3c(c2)-c2nn(-c4ncc(N5CC[C@@H](F)C5)cn4)cc2C3)c1 [T-50, N-(4-(chlorodifluoromethoxy)phenyl)-6-((R)-3-fluoropyrrolidin-1-yl)-5-(2-(5-((R)-3-fluoropyrrolidin-1-yl)pyrimidin-2-yl)-2,4-dihydropyrazolo[3',4':3,4]cyclopenta[1,2-b]pyridin-7-yl)nicotinamide]	≤ 5 nM	5 to 50 nM	> 1000 nM	≤ 5 nM
COc1cnc(-n2cc3c(n2)-c2cc(-c4cc(C(=O)Nc5ccc(OC(F)(F)Cl)cc5)cc5nc6n(c45)[C@H](C)COC6)cnc2C3)nc1 [T-77, (R)-N-(4-(chlorodifluoromethoxy)phenyl)-6-(2-(5-methoxypyrimidin-2-yl)-2,4-dihydropyrazolo[3',4':3,4]cyclopenta[1,2-b]pyridin-7-yl)-4-methyl-3,4-dihydro-1H-benzo[4,5]imidazo[2,1-c][1,4]oxazine-8-carboxamide]	≤ 5 nM	≤ 5 nM	> 1000 nM	≤ 5 nM
O=C(Nc1ccc(OC(F)(F)Cl)cc1)c1cnc(N2CC[C@@H](F)C2)c(-c2cnc3c(c2)-c2nn(-c4nccc(-c5cncnc5)n4)cc2C3)c1 [T-22]	≤ 5 nM	≤ 5 nM	> 1000 nM	≤ 5 nM
C[C@@H]1CN(C)Cc2nc3cc(C(=O)Nc4ccc(OC(F)(F)Cl)cc4)cc(-c4cnc5c(c4)-c4n[nH]cc4C5)c3n21 [T-40, (R)-N-(4-(chlorodifluoromethoxy)phenyl)-6-(2,4-dihydropyrazolo[3',4':3,4]cyclopenta[1,2-b]pyridin-7-yl)-2,4-dimethyl-1,2,3,4-tetrahydrobenzo[4,5]imidazo[1,2-a]pyrazine-8-carboxamide]	≤ 5 nM	> 1000 nM	> 1000 nM	≤ 5 nM
N#Cc1ccnc(-n2cc3c(n2)-c2cc(-c4cc(C(=O)Nc5ccc(OC(F)(F)Cl)cc5)cnc4N4CC[C@@H](F)C4)cnc2C3)n1 [T-129, (R)-N-(4-(chlorodifluoromethoxy)phenyl)-5-(2-(4-cyanopyrimidin-2-yl)-2,4-dihydropyrazolo[3',4':3,4]cyclopenta[1,2-b]pyridin-7-yl)-6-(3-fluoropyrrolidin-1-yl)nicotinamide]	≤ 5 nM	≤ 5 nM	> 1000 nM	≤ 5 nM
